One test relates to rat pituitary cells. Kind of test: stimulation of growth hormone production in rat pituitary cells in tissue culture (RIA for rat growth hormone). The format is cell-based. Here is the method: Biological activity of the synthetic GRF(1-44)NH2 was identical to the natural GRF(1-44)NH2 which was isolated from a human pancreatic tumor of an individual suffering from acrommegaly (Salk Institute standard hGRF-NH2 (NL-A-10)). The assay for biological activity, which is based on the ability to stimulate production of growth hormone in rat pituitary cells in tissue culture, was performed in the following manner.
Pituitaries from 30-40 male Sprague-Dawley rats (175 g) were removed aseptically after decapitation. The anterior lobes were collected, washed 3 times in sterile Hepes buffer (0.025M) (pH 7.35) and dispersed at 37° C. in 20-30 ml Hepes buffer (pH 7.35) containing collagenase (4 mg per ml) and Dispase (Protease grade II, 2 mg per ml). After gentle 100-110-min. vortexing and trituration by Pasteur pipette, the dispersed cells were separated by centrifugation (150×g, 4 min) and re-suspended in Hepes buffer containing neuraminidase ([…]), and 200 µg/ml ethylenediaminetetraacetic acid (EDTA) disodium salt pH 7.35, for 10 min. The cells were washed twice with plating medium and plated on multiwell-plates (1.5×10^5 cells per ml) using the following defined medium: F-12/DMEM/BGJ (6:3:1) (Gibco: 430-1700/430-1600/320-2591) with 2 g BSA/1., 2.38 g Hepes/1.50 mg PSN antibiotic mixture (Gibco Laboratories), 10 mg/l transferrin (Sigma T2252) with 1.83 gm NazHCO3/l (Baker 3506). The medium in each well was supplemented either with a sample of the novel GRF peptide or natural GRF(1-44)-NH2 at concentrations ranging from 0.8 to 200 fmol. per ml. of medium. Control wells contained no supplement. Plating was done with this medium added with 2% fetal calf serum to ensure rapid fixation of the cells. On the fourth day the cells were washed twice with the defined medium without fetal calf serum. Finally 900 μl of defined medium was added to each well plus 100 μl of the same medium containing each individual treatment, in triplicate. After 4 hours of incubation the medium was collected and diluted as required to conduct radioimmunoassay (RIAs) for rat growth hormone. […]

Test [1] has as its system release of growth hormone. The note with it: Rivier and Vale et al., Nature 300, 276-278 (1982); cited from earlier work.

No end group written: not given here.

For `CC[C@H](C)[C@H](NC(=O)[C@H](C)NC(=O)[C@H](CC(=O)O)NC(=O)[C@H](C)NC(=O)[C@@H](N)Cc1ccc(O)cc1)C(=O)N[C@@H](Cc1ccccc1)C(=O)N[C@H](C(=O)N[C@@H](CC(N)=O)C(=O)N[C@@H](CO)C(=O)N[C@@H](Cc1ccc(O)cc1)C(=O)N[C@@H](CCCNC(=N)N)C(=O)N[C@@H](CCCCN)C(=O)N[C@H](C(=O)N[C@@H](CC(C)C)C(=O)NCC(=O)N[C@@H](CCC(N)=O)C(=O)N[C@@H](CC(C)C)C(=O)N[C@@H](CO)C(=O)N[C@@H](C)C(=O)N[C@@H](CCCNC(=N)N)C(=O)N[C@@H](CCCCN)C(=O)N[C@@H](CC(C)C)C(=O)N[C@@H](CC(C)C)C(=O)N[C@@H](CCC(N)=O)C(=O)N[C@@H](CC(=O)O)C(=O)N[C@H](C(=O)N[C@@H](CCSC)C(=O)N[C@@H](CO)C(=O)N[C@@H](CCCNC(=N)N)C(=O)N[C@@H](CCC(N)=O)C(=O)N[C@@H](CCC(N)=O)C(=O)NCC(=O)N[C@@H](CCC(=O)O)C(=O)N[C@@H](CO)C(=O)N[C@@H](CC(N)=O)C(=O)N[C@@H](CCC(N)=O)C(=O)N[C@@H](CCC(=O)O)C(=O)N[C@@H](CCCNC(=N)N)C(=O)NCC(=O)N[C@@H](C)C(=O)N[C@@H](CCCNC(=N)N)C(=O)N[C@@H](C)C(=O)N[C@@H](CCCNC(=N)N)C(=O)N[C@@H](CC(C)C)C(N)=O)[C@@H](C)CC)C(C)C)[C@@H](C)O` [synthetic GRF(1-44)NH2, GRF(1-44)-NH2], in the test with rat pituitary cells (versus natural GRF(1-44)NH2 isolated from a human pancreatic tumor (Salk Institute standard NL-A-10)), the “biological activity compared with natural GRF(1-44)NH2” value is given as “identical”. Take GRF(1-29)-NH2: in test [1], the “intrinsic activity and potency in vitro” value was “full intrinsic activity and potency”.

Take “YADAIFTNSYRKVLAQLSARKLLQDIMSR-NH2 [(Ala^15)GRF(1-29)NH2, [Ala^15]-hGRF(1-29)-NH2]”: the “potency compared to GRF(1-44)NH2” value in the test with rat pituitary cells (relative to GRF(1-44)NH2, on a weight for weight basis, 4 hours of incubation) is 4.1 times. In addition, the “potency compared to GRF(1-29)NH2” value in the test on rat pituitary cells (relative to unsubstituted shortened GRF(1-29)NH2, 4 hours of incubation) worked out at 5.1 times.

These data come from patent US4649131A, “Growth hormone releasing factor analogs” (Hoffmann-La Roche Inc., priority 1985, dated 1987).
